Test [1] relates to Escherichia coli. As to the kind of experiment: Antibacterial activity against Escherichia coli B. The format is functional, organism-based.
Test [2] deals with Escherichia coli. As to the kind of experiment: Antibacterial activity against Escherichia coli AS19. The format is functional, organism-based.

Structures are written as SMILES. The source made the active and inactive calls. The rule behind the calls is not given here.

As to `OCCc1scnc1C(F)(F)F`, the inhibition entry with Escherichia coli [1] and in the test on Escherichia coli [2] was “inactive” each time.

Regarding `Cc1nc(F)sc1CCO`, the inhibition entry with Escherichia coli [1] and with Escherichia coli [2] was “inactive” in each case.

For the origin of these results see ChEMBL document CHEMBL3228004, “An attempt to apply lethal synthesis to the design of chemotherapeutic agents. Fluorinated 5 beta-(hydroxyethyl)-4-methylthiazoles” (J Med Chem, 1979).
